Non-standard residues stand in square brackets, D forms with d. d(aIle) = CC[C@H](C)[C@@H](N)C(=O)O; Nva = CCC[C@H](N)C(=O)O; Sar = CNCC(=O)O
What was measured:
large NB xenografts = settings: large xenografts >380 mm^3, after 10 days of treatment; peptide p<0.01, VPA p<0.001; FIG. 1C
Description: (§1) SMS-KCNR, NMB, and NBL-W-S MYCN amplified NB cell lines were used in this study. Cells were grown at 5% CO2 in RPMI 1640 (Invitrogen, Carlsbad, Calif.) supplemented with 10% heat-inactivated fetal bovine serum, L-Glutamine, and antibiotics.
(§2) Lyophilized peptides with the sequence: acetyl-sarcosine-glycine-valine-D-alloisoleucine-threonine-norvaline-isoleucine-arginine-proline-ethylamide were dissolved in sterile 5% dextrose and stored at 4° C.
(§3) Female 4-6 week old homozygous athymic nude mice (Harlan, Madison, Wis.) were inoculated s.c. into the right flank with ^1×107SMS-KCNR or 1.25×10^7 NMB cells. Once tumors were palpable (70 mm^3), mice were treated 1×/day for 20 days with either acetyl-sarcosine-glycine-valine-Dalloisoleucine-threonine-norvaline-isoleucine-arginine-proline-ethylamide (IP, 40 mg/kg), VPA (IP, 400 mg/kg) or acetyl-sarcosine-glycine-valine-D-alloisoleucine-threonine-norvaline-isoleucine-arginine-proline-ethylamide and VPA (in combination). In separate experiments, treatment was started after the animals developed larger tumors>380 mm^3 in size and treatment was continued for 10 days. Tumor volumes were measured twice a week and calculated using the formula: tumor volume =(length X width^2)/2(25). The Student's t-test was used to compare tumor size in the control and treatment groups. Mice were sacrificed after 20 or 10 days of treatment, respectively. […]

[1] = system: SMS-KCNR MYCN-amplified NB cell line xenografts; experiment: Neuroblastoma xenograft study, SMS-KCNR model; format: in vivo, athymic nude mice; settings: SMS-KCNR xenografts about 70 mm^3, 20 days of treatment, each agent alone and in combination
Description: as §1, §2, §3

[2] = system: NMB MYCN-amplified NB cell line xenografts; experiment: Neuroblastoma xenograft study, NMB xenografts; format: in vivo, athymic nude mice; settings: NMB xenografts about 70 mm^3, 20 days of treatment, each agent alone and in combination
Description: as §1, §2, §3

With Ac-[Sar]GV[d(aIle)]T[Nva]IRP-NHEt as the compound, how does the tumor volumes reduced (large NB xenografts) read?
Its tumor volumes reduced is 33%.

And the “tumor growth (result in words)” value [1]?
Its value is “Tumor growth was inhibited”.

And the “tumor growth (result in words)” value [2]?
Its value is “Tumor growth was inhibited”.

For `CCCC(CCC)C(=O)O` [VPA, valproic acid], which tumor volumes reduced (large NB xenografts) is on record?
The tumor volumes reduced was 44%.

What about the “tumor growth (result in words)” value [1] of the same compound?
Its value is “Tumor growth was inhibited”.

What about the “tumor growth (result in words)” value [2] of the same compound?
The value was “Tumor growth was inhibited”.

From patent publication US20080004222A1, “Antitumorigenic Drug Combination” (priority 2006, published 2008)
